# Experimental data reported in paper PMC12455397 (Angewandte Chemie (International Ed. in English), 2025).
# Experiments:
# [1] = tested on: Nrf2-regulated genes (AKR1B10, NQO1, TRXR1, HO-1) in HaCaT human keratinocytes; assay: HaCaT cell assay, Western Blotting of Nrf2-regulated proteins; assay type: cell-based; conditions: 24 h; for protein levels of Nrf2-regulated genes by WB: HaCaT, 10 µM; for relative cell potency among the six compounds (WB): HaCaT, 10, 3, 1 µM
# [2] = tested on: Nrf2-regulated genes (AKR1B10, NQO1, TRXR1, HO-1) in HaCaT human keratinocytes; assay: HaCaT cell assay, RT-qPCR of Nrf2-regulated genes; assay type: cell-based; conditions: WT HaCaT, 3, 1 and 0.33 µM, 5 h, normalized to TBP
# [3] = tested on: NLRP3 inflammasome in macrophage-derived THP-1 cells; assay: NLRP3 inflammasome / TLR4 activation in THP-1 macrophages (WB, ELISA); assay type: cell-based; conditions: 100 µM, 24 h; for IL-1β release (ELISA) following NLRP3 activation: LPS 100 ng/mL 3 h + nigericin 10 µM 1 h; for IL-1β release (ELISA) following high concentrations of LPS: LPS 2 µg/mL 6 h; for expression of NLRP3 (WB) / total protein levels of pro-IL-1β (WB): LPS or LPS+nigericin stimulation
# human Keap1 Kelch = human Keap1 Kelch (Homo sapiens, UniProt Q14145); assay: Fluorescence polarization (FP) competition assay with Cy5-Nrf2 peptide probe; conditions: for Ki: ≥3 individual measurements; for ligand efficiency (LE): from FP Ki
# Sequence of human Keap1 Kelch (Q14145 321-609): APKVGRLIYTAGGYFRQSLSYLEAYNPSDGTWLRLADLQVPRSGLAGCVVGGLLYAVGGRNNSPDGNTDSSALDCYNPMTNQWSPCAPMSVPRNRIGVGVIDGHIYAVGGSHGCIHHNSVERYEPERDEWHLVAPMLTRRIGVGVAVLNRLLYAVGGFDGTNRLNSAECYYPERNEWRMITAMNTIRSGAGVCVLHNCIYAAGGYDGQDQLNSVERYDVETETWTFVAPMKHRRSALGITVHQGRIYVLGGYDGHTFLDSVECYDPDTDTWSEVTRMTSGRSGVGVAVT
# Experimental: Fluorescence Polarization Assay
# (3 nM) and human Keap1 Kelch at 14 nM in the 1×HBSTET assay buffer, as previously.[1, 3-5] In short, the assay was performed in black flat-bottom 384-well plates (Corning Life Sciences, NY) allowing an assay volume of 30 μL/well. Proper mixing and elimination of air bubbles was ascertained by spinning down the plates and incubation for 10–15 minutes at RT before measuring FP levels on a Safire2 plate-reader (Tecan, Männedorf, Switzerland). The Ki values of the compounds were determined by dose-response experiments (12-points, 4% DMSO in all wells), where FP values were fitted to the equation Y = Bottom + (Top - Bottom)/[1 + (10HillSlope*(LogIC50-X))]; X representing the logarithmic value of compound concentration. The resulting IC50 value, together with the Kd value (the dissociation constant between probe and Keap1 Kelch, determined in a prior experiment) and Keap1 Kelch concentrations, was used to calculate the theoretical competitive inhibition constant, the Ki value.[18]
# [4] = tested on: Nrf2 KO THP1 cells differentiated into macrophages; assay: RNA sequencing transcriptome analysis, Nrf2 KO THP-1 macrophages; assay type: cell-based; conditions: 12 h, CDDO-Me 0.1 µM, DMF, 24, 28 10 µM, KI-696 1 µM
# THP1 cells = assay type: cell-based; conditions: THP-1 WT, 10 and 100 µM, 48 h
# Experimental: THP1 cells were exposed to the compounds for 48 hours at 10 and 100 μM. Viability was quantified using
# propidium iodide exclusion through flow cytometry. PI-positive cells (dead or necrotic cells) were quantified
# through red fluorescence on a BD C6 Accuri flow cytometer using a 488 nm excitation wavelength and an
# emission filter of 585 nm ± 40 nm (BD Biosciences). 50,000 events were collected (n = 3 technical replicates
# per condition). The experiment was repeated twice. Data are presented as mean ± SEM (n = 4‒10).
# [5] = tested on: IFN signalling in macrophage-derived THP-1 cells; assay: Type I IFN signalling after IFNβ stimulation in THP-1 macrophages (WB); assay type: cell-based; conditions: 100 µM, 24 h; IFNβ 500 U/mL 1 h
# [6] = tested on: differentiated THP1 macrophages (WT); conditions: for AKR1B10 FC / CASP1 FC / COL1A1 FC / COL4A1 FC / COL4A2 FC / CYP1B1 FC / GPX1 FC / GPX4 FC / IFNAR1 FC / IFNAR2 FC / IFNGR1 FC / IFNGR2 FC / IL1B FC / IRF3 FC / LAMB1 FC / LAMB4 FC / MMP8 FC / MMP9 FC / MMP12 FC / NLRP3 FC / NOD2 FC / NOXA1 FC / SOCS1 FC / SOCS3 FC / SOD1 FC / SOD2 FC / STAT1 FC / TBK1 FC / TLR4 FC / TNFRSF1B FC / TRAP1 FC / cGAS FC: Table S3, THP-1, 12 h; for NQO1 upregulation at 24 h: 10 µM (footnote * of Figure 7c)
# [7] = tested on: cGAS-STING pathway in macrophage-derived THP-1 cells; assay: cGAS-STING pathway in THP-1 macrophages (WB); assay type: cell-based; conditions: 100 µM, 24 h; cGAMP 4 µg/mL 6 h
# [8] = tested on: NQO1 mRNA in BEAS-2B cells; assay: qPCR-based BEAS-2B cell assay (NQO1 mRNA); set-up: species or system human; conditions: mean ± SEM, 2-4 independent experiments
# Experimental: RT-qPCR were stimulated with compounds or DMSO diluted in DMEM and incubated for 24 h. DMSO was added accordingly to highest percentage compound volume added.
# Upon 24 hour compound stimulation, the cells were trypsinized, washed, spun down and resuspended in 70 μL of ice-cold Pierce RIPA lysis buffer (Thermo Scientific) supplemented with 10 mM NaF, 1× complete protease cocktail inhibitor (Roche), and 5 IU mL-1 benzonase (Sigma), respectively. The protein concentrations were determined using the BCA protein assay kit (Thermo Scientific) and samples was equalized accordingly to the sample of lowest protein concentration. 1×XT sample buffer (Bio-Rad) and 1×XT reducing agent (Bio-Rad) were added to the samples, and lysates were denatured by boiling for 5 min at 95 °C. Denatured samples was separated by SDS-PAGE on a 4–20% Criterion TGX precast gradient gel (Bio-Rad). The gel ran initially for 20 min at 70 V and 45 min at 120 V and was then transferred onto a PVDF membrane (Bio-Rad) using a Trans-Blot Turbo transfer system. […]
# Upon 5 hour compound stimulation, RNA was extracted from the cells using the High Pure RNA Isolation Kit (Roche, 11828665001) according to the manufacturer’s instructions. […] The quality and purity of the RNAs were assessed by Nanodrop spectrometry (DeNovix DS-11). Using the TaqMan detection systems, the gene expression of HO-1 (HMOX-1), NQO1, AKR1B10, and TRXR1 was determined by real-time PCR. […] The commercially available TaqMan assay (Thermo Fischer Scientific, cat. no. 4392938) was used, and samples were analyzed in a final volume of 10 μL reaction mix containing 5 μL of master mix, 0.2 μL of RT enzyme, 2.3 μL of nuclease-free water, […] (TATA-Box Binding Protein/TBP; […]
# Hs00917067_m1, Thermo Fisher), and 2 μL of pure RNA. The samples were analyzed using a QuantStudioTM 3 real-time PCR instrument with the following program: 1 × (10 min, 48.0 °C; 10 min, 95.0 °C); 40 × (30 s, 95.0 °C; 1 min, 60.0 °C). […]
# The upregulation of NQO1 mRNA in BEAS-2B cells was measured by qPCR, as previously described.[20] […]
# [9] = Ki (FP), mean, text and figures
# [10] = WT, 12 h, CDDO-Me 0.1 µM, SFN, DMF, 24, 28 10 µM, KI-696 1 µM
# [11] = WT, 12 h, CDDO-Me 0.1 µM, SFN, DMF, 24, 28 10 µM, KI-696 1 µM, NS = not significant
compound,measurement,setting,value
Cc1cc2c(cc1C(CC(=O)O)c1ccc3ccc(OCC(=O)NC4CCCCCC4)cc3c1)OCCO2 (centres unmarked) [Compound 28],protein levels of Nrf2-regulated genes by WB,[1],strong bands in WB for all tested proteins
same,relative cell potency among the six compounds (WB),[1],most potent
same,target gene mRNA expression (RT-qPCR),[2],several‐fold increases in target gene mRNA expression
same,NLRP3 inflammasome activation: release of cleaved caspase-1 and cleaved IL-1β in supernatants (WB),[3],markedly decreased NLRP3 inflammasome activation
same,cleavage of gasdermin D (GSDMD) (WB),[3],prevented the cleavage of gasdermin D
same,IL-1β release (ELISA) following NLRP3 activation,[3],confirmed a decrease
same,IL-1β release (ELISA) following high concentrations of LPS,[3],no statistical difference was observed
same,expression of NLRP3 (WB),[3],markedly reduced
same,total protein levels of pro-IL-1β (WB),[3],also reduced
same,Ki,human Keap1 Kelch; [9],8.8 nM
same,ligand efficiency (LE),human Keap1 Kelch,0.29
same,number of up- or downregulated genes in Nrf2 KO cells,[4],266 genes
same,cell viability,THP1 cells,did not reduce cell viability
same,"IFN signalling (phosphorylated STAT1, IFIT1 protein levels) (WB)",[5],did not affect IFN signalling
same,AKR1B10 FC,[6],"4,27 fold"
same,CASP1 FC,[6],"0,59 fold"
same,COL1A1 FC,[6],"1,40 fold"
same,COL4A1 FC,[6],"1,15 fold"
same,COL4A2 FC,[6],"1,11 fold"
same,CYP1B1 FC,[6],"1,04 fold"
same,GPX1 FC,[6],"0,62 fold"
same,GPX4 FC,[6],"1,20 fold"
same,IFNAR1 FC,[6],"0,92 fold"
same,IFNAR2 FC,[6],"0,99 fold"
same,IFNGR1 FC,[6],"0,64 fold"
same,IFNGR2 FC,[6],"0,76 fold"
same,IL1B FC,[6],"0,88 fold"
same,IRF3 FC,[6],"1,03 fold"
same,LAMB1 FC,[6],"4,94 fold"
same,LAMB4 FC,[6],"3,01 fold"
same,MMP8 FC,[6],"0,94 fold"
same,MMP9 FC,[6],"1,03 fold"
same,MMP12 FC,[6],"0,53 fold"
same,NLRP3 FC,[6],"0,79 fold"
same,NOD2 FC,[6],"0,38 fold"
same,NOXA1 FC,[6],"0,50 fold"
same,SOCS1 FC,[6],"1,95 fold"
same,SOCS3 FC,[6],"2,13 fold"
same,SOD1 FC,[6],"1,35 fold"
same,SOD2 FC,[6],"0,68 fold"
same,STAT1 FC,[6],"0,77 fold"
same,TBK1 FC,[6],"1,01 fold"
same,TLR4 FC,[6],"1,04 fold"
same,TNFRSF1B FC,[6],"1,14 fold"
same,TRAP1 FC,[6],"0,86 fold"
same,cGAS FC,[6],"1,29 fold"
same,Average FC of upregulated Nrf2-dependent genes,[6]; [10],2.5 fold
same,"number of upregulated genes (FC >2.0, p-adj <0.05)",[6]; [10],175 genes
same,GCLM fold change vs vehicle,[6]; [11],3.0 fold
same,GSR fold change vs vehicle,[6]; [11],2.0 fold
same,HMOX1 fold change vs vehicle,[6]; [11],2.4 fold
same,SRXN1 fold change vs vehicle,[6]; [11],2.4 fold
same,TXNRD1 fold change vs vehicle,[6]; [11],2.9 fold
same,NQO1 upregulation at 24 h,[6]; WT,1.5 fold
same,ISG15 levels (WB),[7],reduced levels
same,total STING levels and STING activation (phosphorylated STING and TBK1) (WB),[7],reduced total STING levels and STING activation
same,EC50,"[8]; Homo sapiens, BEAS-2B",60.1 ± 5.7 nM
same,EC50,[8],60 nM
Cc1cc2c(cc1C(CC(=O)O)c1ccc3ccc(OCC(=O)NC4CCCCCC4)cc3c1)OCO2 (centres unmarked) [Compound 24],protein levels of Nrf2-regulated genes by WB,[1],strong bands in WB for all tested proteins
same,relative cell potency among the six compounds (WB),[1],most potent
same,target gene mRNA expression (RT-qPCR),[2],several‐fold increases in target gene mRNA expression
same,NLRP3 inflammasome activation: release of cleaved caspase-1 and cleaved IL-1β in supernatants (WB),[3],markedly decreased NLRP3 inflammasome activation
same,cleavage of gasdermin D (GSDMD) (WB),[3],prevented the cleavage of gasdermin D
same,IL-1β release (ELISA) following NLRP3 activation,[3],confirmed a decrease
same,IL-1β release (ELISA) following high concentrations of LPS,[3],no statistical difference was observed
same,expression of NLRP3 (WB),[3],markedly reduced
same,total protein levels of pro-IL-1β (WB),[3],also reduced
same,Ki,"human Keap1 Kelch; FP (Ki/nM), Table S2, mean ± SEM, NA: not active (measured up to 4 mM)",10.1 ± 1.4 nM
same,Ki,human Keap1 Kelch; [9],10 nM
same,fold difference in affinity (FP) between the enantiomers of 24,human Keap1 Kelch; Peak 1 vs Peak 2 after chiral HPLC separation,14 fold
same,ligand efficiency (LE),human Keap1 Kelch,0.30
same,number of up- or downregulated genes in Nrf2 KO cells,[4],347 genes
same,cell viability,THP1 cells,did not reduce cell viability
same,"IFN signalling (phosphorylated STAT1, IFIT1 protein levels) (WB)",[5],did not affect IFN signalling
same,AKR1B10 FC,[6],"6,62 fold"
same,CASP1 FC,[6],"0,65 fold"
same,COL1A1 FC,[6],"1,40 fold"
same,COL4A1 FC,[6],"1,16 fold"
same,COL4A2 FC,[6],"1,10 fold"
same,CYP1B1 FC,[6],"1,14 fold"
same,GPX1 FC,[6],"0,60 fold"
same,GPX4 FC,[6],"1,13 fold"
same,IFNAR1 FC,[6],"0,93 fold"
same,IFNAR2 FC,[6],"1,00 fold"
same,IFNGR1 FC,[6],"0,63 fold"
same,IFNGR2 FC,[6],"0,73 fold"
same,IL1B FC,[6],"0,85 fold"
same,IRF3 FC,[6],"0,96 fold"
same,LAMB1 FC,[6],"5,65 fold"
same,LAMB4 FC,[6],"4,43 fold"
same,MMP8 FC,[6],"0,79 fold"
same,MMP9 FC,[6],"0,91 fold"
same,MMP12 FC,[6],"0,51 fold"
same,NLRP3 FC,[6],"0,79 fold"
same,NOD2 FC,[6],"0,35 fold"
same,NOXA1 FC,[6],"0,41 fold"
same,SOCS1 FC,[6],"2,11 fold"
same,SOCS3 FC,[6],"2,26 fold"
same,SOD1 FC,[6],"0,41 fold"
same,SOD2 FC,[6],"0,59 fold"
same,STAT1 FC,[6],"0,82 fold"
same,TBK1 FC,[6],"0,86 fold"
same,TLR4 FC,[6],"1,17 fold"
same,TNFRSF1B FC,[6],"1,08 fold"
same,TRAP1 FC,[6],"0,82 fold"
same,cGAS FC,[6],"1,36 fold"
same,KEGG pathway analysis of upregulated genes,"[6]; WT, 10 µM, 12 h",activated other important gene clusters involved in cytokine receptor interaction and activation of immune cells
same,Average FC of upregulated Nrf2-dependent genes,[6]; [10],2.7 fold
same,GCLM fold change vs vehicle,[6]; [11],3.0 fold
same,HMOX1 fold change vs vehicle,[6]; [11],2.2 fold
same,SRXN1 fold change vs vehicle,[6]; [11],2.5 fold
same,TXNRD1 fold change vs vehicle,[6]; [11],2.9 fold
same,NQO1 upregulation at 24 h,[6]; WT,1.5 fold
same,ISG15 levels (WB),[7],reduced levels
same,total STING levels and STING activation (phosphorylated STING and TBK1) (WB),[7],reduced total STING levels and STING activation
same,EC50,"[8]; Homo sapiens, BEAS-2B",110 nM
